Results on 35 compounds are retold here after patent publication US9957271B2, “Substituted bicyclic aza-heterocycles and analogues as sirtuin modulators” (GlaxoSmithKline, LLC, priority 2012, dated 2018).

Each structure is given as a SMILES string.

In the test the target is T1, SIRT1 (Homo sapiens, UniProt Q96EB6).
T1 sequence (Q96EB6 1-747): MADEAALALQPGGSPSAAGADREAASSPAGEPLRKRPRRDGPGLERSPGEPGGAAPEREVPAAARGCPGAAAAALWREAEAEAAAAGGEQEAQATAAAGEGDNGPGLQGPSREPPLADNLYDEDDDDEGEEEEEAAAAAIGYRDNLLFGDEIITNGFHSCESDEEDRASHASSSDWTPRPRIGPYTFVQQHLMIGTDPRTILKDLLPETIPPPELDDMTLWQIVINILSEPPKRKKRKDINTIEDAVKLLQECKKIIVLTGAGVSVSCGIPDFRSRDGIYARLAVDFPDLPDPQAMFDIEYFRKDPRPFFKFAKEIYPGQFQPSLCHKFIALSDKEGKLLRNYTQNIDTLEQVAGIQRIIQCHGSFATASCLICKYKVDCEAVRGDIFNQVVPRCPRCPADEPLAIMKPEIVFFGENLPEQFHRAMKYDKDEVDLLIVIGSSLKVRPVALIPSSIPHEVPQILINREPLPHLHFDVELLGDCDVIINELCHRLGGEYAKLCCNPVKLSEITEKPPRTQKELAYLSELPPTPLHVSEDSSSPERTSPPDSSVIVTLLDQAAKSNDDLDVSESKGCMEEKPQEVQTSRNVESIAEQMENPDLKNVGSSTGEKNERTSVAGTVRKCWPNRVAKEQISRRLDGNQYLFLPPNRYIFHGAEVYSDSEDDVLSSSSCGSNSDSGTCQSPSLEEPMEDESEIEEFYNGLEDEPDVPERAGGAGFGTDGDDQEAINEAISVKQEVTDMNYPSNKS
As to the kind of experiment: TAMRA based mass spectrometry assay of SIRT1 activity. The test is classed as biochemical. The settings on record: TAMRA peptide substrate; for TAMRA EC1.5 (μM): concentration of test compound giving 150% activation of SIRT1; for Emax: percent maximum fold activation of SIRT1, read-out: TAMRA % Fold Act. The text has this:
Mass spectrometry based assays were used to identify modulators of SIRT1 activity. The TAMRA based assay utilized a peptide having 20 amino acid residues as follows: Ac-EE-K(biotin)-[…](Ac)NleSTEG-K(5TMR)-EE-NH2 (SEQ ID NO: 1), wherein K(Ac) is an acetylated lysine residue and Nle is a norleucine. The peptide was labeled with the fluorophore 5TMR (excitation 540 nm/emission 580 nm) at the C-terminus. The sequence of the peptide substrate was based on p53 with several modifications. In addition, the methionine residue naturally present in the sequence was replaced with the norleucine because the methionine may be susceptible to oxidation during synthesis and purification. The Trp based assay utilized a peptide having an amino acid residues as follows: Ac-R-H-K-K(Ac)-W-NH2 (SEQ ID NO: 2).
The TAMRA based mass spectrometry assay was conducted as follows: 0.5 μM peptide substrate and 120 μM βNAD^+ was incubated with 10 nM SIRT1 for 25 minutes at 25° C. in a reaction buffer (50 mM Tris-acetate pH 8, 137 mM NaCl, 2.7 mM KCl, 1 mM MgCl2, 5 mM DTT, 0.05% BSA). The SIRT1 protein was obtained by cloning the SirT1 gene into a T7-promoter containing vector, which was then transformed and expressed in BL21(DE3) bacterial cells. Test compound was added at varying concentrations to this reaction mixture and the resulting reactions were monitored. After the 25 minute incubation with SIRT1, 10 μL of 10% formic acid was added to stop the reaction. The resulting reactions were sealed and frozen for later mass spec analysis. Determination of the amount of deacetylated substrate peptide formed (or, alternatively, the amount of O-acetyl-ADP-ribose (OAADPR) generated) by the sirtuin-mediated NAD-dependent deacetylation reaction allowed for the precise measurement of relative SIRT1 activity in the presence of varying concentrations of the test compound versus control reactions lacking the test compound.
A control for inhibition of sirtuin activity was conducted by adding 1 μL of 500 mM nicotinamide as a negative control at the start of the reaction (e.g., permits determination of maximum sirtuin inhibition). A control for activation of sirtuin activity was conducted using 10 nM of sirtuin protein, with 1 μL of DMSO in place of compound, to determine the amount of deacetylation of the substrate at a given time point within the linear range of the assay. This time point was the same as that used for test compounds and, within the linear range, the endpoint represents a change in velocity.
For the above assay, SIRT1 protein was expressed and purified as follows. The SirT1 gene was cloned into a T7-promoter containing vector and transformed into BL21(DE3). The protein was expressed by induction with 1 mM IPTG as an N-terminal His-tag fusion protein at 18° C. overnight and harvested at 30,000×g. Cells were lysed with lysozyme in lysis buffer (50 mM Tris-HCl, 2 mM Tris[2-carboxyethyl]phosphine (TCEP), 10 μM ZnCl2, 200 mM NaCl) and further treated with sonication for […] for complete lysis. The protein was purified over a Ni-NTA column (Amersham) and fractions containing pure protein were pooled, concentrated and run over a sizing column (Sephadex S200 26/60 global). The peak containing soluble protein was collected and run on an Ion-exchange column (MonoQ). Gradient elution (200 mM-500 mM NaCl) yielded pure protein. This protein was concentrated and dialyzed against dialysis buffer (20 mM Tris-HCl, 2 mM TCEP) overnight. The protein was aliquoted and frozen at −80° C. until further use.

In the case of `O=C(Nc1ncco1)c1cnc2ccc(-c3ccccc3C(F)(F)F)nn12` [Compound 114], the “TAMRA EC1.5 (μM)” value is listed as “B (EC1.5 1-25 μM)” and the Emax was less than 350%.

Turning to `Cn1nccc1NC(=O)c1cnc2ccc(-c3ccccc3C(F)(F)F)nn12` [Compound 115], the “TAMRA EC1.5 (μM)” value is reported as “C (EC1.5>25 μM)” and the Emax is less than 350%.

For the compound `O=C(Nc1ccccn1)c1cnc2ccc(-c3ccccc3Cl)nn12` [Compound 117], the “TAMRA EC1.5 (μM)” value is recorded as “B (EC1.5 1-25 μM)” and the Emax is less than 350%.

With `O=C(Nc1cccnc1)c1cnc2ccc(-c3ccccc3Cl)nn12` [Compound 118], the “TAMRA EC1.5 (μM)” value is “B (EC1.5 1-25 μM)” and the Emax was less than 350%.

Regarding `O=C(Nc1cnc2ccc(-c3ccccc3C(F)(F)F)nn12)c1ncccn1` [Compound 121], the “TAMRA EC1.5 (μM)” value is recorded as “A (EC1.5<1 μM)” and the Emax is not below 350%.

For the compound `Cc1cnc(C(=O)Nc2cnc3ccc(-c4ccccc4C(F)(F)F)nn23)s1` [Compound 123], the “TAMRA EC1.5 (μM)” value is “A (EC1.5<1 μM)” and the Emax was not below 350%.

Turning to `O=C(Nc1cnc2ccc(-c3ccccc3C(F)(F)F)nn12)c1ccnc(N2CCCC2)c1` [Compound 124], the “TAMRA EC1.5 (μM)” value is “A (EC1.5<1 μM)” and the Emax was not below 350%.

On to `O=C(Nc1cccc(CN2CCOCC2)n1)c1cnc2ccc(-c3ccc(F)c(F)c3F)nn12` [Compound 127], for which the “TAMRA EC1.5 (μM)” value was “B (EC1.5 1-25 μM)” and the Emax was less than 350%.

`O=C(Nc1ccccn1)c1cnc2ccc(-c3ccc(F)c(F)c3F)nn12` [Compound 129]: the “TAMRA EC1.5 (μM)” value is recorded as “C (EC1.5>25 μM)” and the Emax is less than 350%.

`O=C(Nc1ccnc(N2CCC2)c1)c1cnc2ccc(-c3ccc(F)c(F)c3F)nn12` [Compound 132]: the “TAMRA EC1.5 (μM)” value is on record as “C (EC1.5>25 μM)” and the Emax was less than 350%.

In the case of `O=C(Nc1cccc(CN2CCOCC2)n1)c1cnc2ccc(-c3ccccc3F)nn12` [Compound 135], the “TAMRA EC1.5 (μM)” value is listed as “A (EC1.5<1 μM)” and the Emax was not below 350%.

Turning to `O=C(Nc1ccncc1)c1cnc2ccc(-c3ccccc3F)nn12` [Compound 136], the “TAMRA EC1.5 (μM)” value is recorded as “B (EC1.5 1-25 μM)” and the Emax was less than 350%.

`O=C(Nc1ccccn1)c1cnc2ccc(-c3ccccc3F)nn12` [Compound 137]: the “TAMRA EC1.5 (μM)” value is “B (EC1.5 1-25 μM)” and the Emax is less than 350%.

As for `O=C(Nc1cccnc1)c1cnc2ccc(-c3ccccc3F)nn12` [Compound 138], the “TAMRA EC1.5 (μM)” value is “B (EC1.5 1-25 μM)” and the Emax was less than 350%.

With `O=C(Nc1cnccn1)c1cnc2ccc(-c3ccccc3F)nn12` [Compound 139], the “TAMRA EC1.5 (μM)” value is “B (EC1.5 1-25 μM)” and the Emax was less than 350%.

For the compound `O=C(Nc1ccccn1)c1cnc2ccc(-c3cccc(Cl)c3F)nn12` [Compound 142], the “TAMRA EC1.5 (μM)” value was “B (EC1.5 1-25 μM)” and the Emax was less than 350%.

Consider `O=C(Nc1cnc2ccc(-c3ccccc3C(F)(F)F)nn12)c1cccc(N2CCC2)n1` [Compound 144], for which the “TAMRA EC1.5 (μM)” value is recorded as “A (EC1.5<1 μM)” and the Emax is not below 350%.

Take `O=C(Nc1cnc2ccc(-c3ccccc3C(F)(F)F)nn12)c1cccc(CN2CCCC2)n1` [Compound 145]: the “TAMRA EC1.5 (μM)” value is reported as “A (EC1.5<1 μM)” and the Emax is not below 350%.

Regarding `O=C(Nc1cnc2ccc(-c3ccccc3C(F)(F)F)nn12)c1ccc(CN2CCOCC2)nc1` [Compound 147], the “TAMRA EC1.5 (μM)” value is reported as “B (EC1.5 1-25 μM)” and the Emax is less than 350%.

As for `O=C(Nc1cnc2ccc(-c3ccccc3C(F)(F)F)nn12)c1ccnc(CN2CCOCC2)c1` [Compound 148], the “TAMRA EC1.5 (μM)” value was “C (EC1.5>25 μM)” and the Emax was less than 350%.

Take `O=C(Nc1ncc(N2CCOCC2)s1)c1cnc2ccc(-c3ccccc3C(F)(F)F)nn12` [Compound 151]: the “TAMRA EC1.5 (μM)” value is listed as “A (EC1.5<1 μM)” and the Emax is not below 350%.

As for `Cn1cc(NC(=O)c2cnc3ccc(-c4ccccc4C(F)(F)F)nn23)cn1` [Compound 153], the “TAMRA EC1.5 (μM)” value was “B (EC1.5 1-25 μM)” and the Emax was not below 350%.

For the compound `COCCn1cc(NC(=O)c2cnc3ccc(-c4ccccc4C(F)(F)F)nn23)cn1` [Compound 154], the “TAMRA EC1.5 (μM)” value is given as “B (EC1.5 1-25 μM)” and the Emax was not below 350%.

As to `COCCn1cc(NC(=O)c2cnc3ccc(-c4ccccc4C(F)(F)F)nn23)ccc1=O` [Compound 156], the “TAMRA EC1.5 (μM)” value is recorded as “B (EC1.5 1-25 μM)” and the Emax was less than 350%.

For `O=C(Nc1cnccn1)c1cnc2ccc(-c3cccc(Cl)c3F)nn12` [Compound 157], the “TAMRA EC1.5 (μM)” value is listed as “B (EC1.5 1-25 μM)” and the Emax was less than 350%.

`O=C(Nc1cccc(N2CCOCC2)n1)c1cnc2ccc(-c3cccc(Cl)c3F)nn12` [Compound 158]: the “TAMRA EC1.5 (μM)” value is “A (EC1.5<1 μM)” and the Emax is not below 350%.

For the compound `O=C(Nc1cccc(CN2CCOCC2)n1)c1cnc2ccc(-c3c(F)cccc3Cl)nn12` [Compound 160], the “TAMRA EC1.5 (μM)” value is reported as “B (EC1.5 1-25 μM)” and the Emax was not below 350%.

As for `O=C(Nc1ccccn1)c1cnc2ccc(-c3c(F)cccc3Cl)nn12` [Compound 162], the “TAMRA EC1.5 (μM)” value is “B (EC1.5 1-25 μM)” and the Emax is less than 350%.

`O=C(Nc1cccnc1)c1cnc2ccc(-c3c(F)cccc3Cl)nn12` [Compound 163]: the “TAMRA EC1.5 (μM)” value was “C (EC1.5>25 μM)” and the Emax is less than 350%.

On to `O=C(Nc1ccnc(N2CCC2)c1)c1cnc2ccc(-c3c(F)cccc3Cl)nn12` [Compound 165], for which the “TAMRA EC1.5 (μM)” value is “B (EC1.5 1-25 μM)” and the Emax is not below 350%.

Turning to `O=C(Nc1ccncc1)c1cnc2ccc(-c3c(F)cccc3F)nn12` [Compound 166], the “TAMRA EC1.5 (μM)” value was “C (EC1.5>25 μM)” and the Emax is less than 350%.

`O=C(Nc1cccc(N2CCOCC2)n1)c1cnc2ccc(-c3c(F)cccc3F)nn12` [Compound 168]: the “TAMRA EC1.5 (μM)” value is “A (EC1.5<1 μM)” and the Emax was not below 350%.

For the compound `O=C(Nc1cccnc1)c1cnc2ccc(-c3c(F)cccc3F)nn12` [Compound 169], the “TAMRA EC1.5 (μM)” value is reported as “C (EC1.5>25 μM)” and the Emax was less than 350%.

With `O=C(Nc1cnccn1)c1cnc2ccc(-c3c(F)cccc3F)nn12` [Compound 171], the “TAMRA EC1.5 (μM)” value was “C (EC1.5>25 μM)” and the Emax is less than 350%.

Take `COc1cc(C)nc(NC(=O)c2cnc3ccc(-c4ccccc4C(F)(F)F)nn23)n1` [Compound 174]: the “TAMRA EC1.5 (μM)” value was “A (EC1.5<1 μM)” and the Emax is not below 350%.
